Read-outs that look alike come from different tables or passages of the source.
System: Human peripheral blood mononuclear cells (PBMC)
Experiment: Cytokine induction in human cells (PBMC)
Assay type: cell-based
Settings: for minimal effective concentration / MEC to Induce Cytokine TNF-alpha: human PBMC, 21-24 hours culture, lowest concentration giving cytokine level at least 2× negative control
Description: Whole blood was obtained from healthy human donors and collected by venipuncture into vacutainer tubes or syringes containing EDTA. Human peripheral blood mononuclear cells (PBMC) were purified from the whole blood by density gradient centrifugation. Histopaque 1077 (15 mL, Sigma, St. Louis, MO) was transferred to 6×50 mL sterile polypropylene conical tubes. The Histopaque was overlayed with 15-25 mL of blood diluted 1:2 in Hank's Balanced Salts Solution (HBSS) (Gibco, Life Technologies, Grand Island, NY). The tubes were then centrifuged at 1370 rpm for 30 minutes at 20° C., with no brake (400×g, GH 3.8A Rotor).
The interface (buffy coat) containing the PBMC was collected and placed in a new sterile 50 ml conical polypropylene centrifuge tube. The PBMC were mixed with an equal volume of HBSS (about 20 mL from the interface and about 20 mL of HBSS), and then centrifuged at 1090 rpm, 10 minutes, 20° C., with brake (270×g, GH 3.8A Rotor). After completing centrifugation, the cells were resuspended in 2-3 mL ACK Red blood cell lysis buffer (ammonium chloride potassium solution, Gibco, Life Technologies) and incubated for 2-5 minutes at 20° C. Next, HBSS (40 mL) was added to the cells, and the sample was centrifuged at 270×g for 10 minutes at 20° C. The supernatant was decanted, and the cell pellet was resuspended in 5 mL AIM V Medium (Gibco, Life Technologies). Cell aggregates and debris were removed by filtering the cell solution through a BD Falcon 70 micron nylon cell strainer (BD Biosciences, San Jose, CA).
The number of viable cells was determined by counting with a Miltenyi FACS instrument (Miltenyi Biotec Inc., San Diego, CA) or by using a hemocytometer. For determining cell viability with a hemocytometer, the cells were diluted 1/10 in 0.4% trypan blue and HBSS (specifically, 50 microliter of trypan blue+40 microliter of HBSS+10 microliter of cell solution were added to a microfuge tube and mixed). Ten microliters of the diluted cells were then applied to the hemocytometer, and the number of viable PBMC were determined by microscopy.
The PBMC sample was then resuspended in 96-well plates at a concentration of 8×10^5 cells/well in 0.1 mL of AIM-V medium. Each compound was solubilized in dimethyl sulfoxide (DMSO) to create a 3 mM stock solution. The stock solution was then further diluted with AIM-V medium to prepare the serial dilutions. The diluted compound (100 microliters) was then transferred to the PBMCs to produce testing sets with final compound concentrations of either 30, 10, 3.3, 1.1, 0.37, 0.12, 0.04, 0.01 micromolar (testing set A); 30, 10, 3.3, 1.1, 0.37, 0.12, 0.04 micromolar (testing set B); 100, 33.3, 11.1, 3.7, 1.2, 0.4 micromolar (testing set C); or 3.0, 1.0, 0.33, 0.11, 0.037, 0.012, 0.004, 0.0014 micromolar (testing set D). The plates also had both positive and negative controls. The negative control wells contained only AIM-V medium with no example compound. The positive control wells contained a control set of imiquimod serially diluted to concentrations of either 30, 10, 3.3, 1.1, 0.37, 0.12, 0.04, 0.01 micromolar (control set A); 30, 10, 3.3, 1.1, 0.37, 0.12, 0.04 micromolar (control set B); 100, 33.3, 11.1, 3.7, 1.2, 0.4 micromolar (control set C); or 3.0, 1.0, 0.33, 0.11, 0.037, 0.012, 0.004, 0.0014 micromolar (control set D). The concentrations used in the control set were selected to match the concentrations used in the testing set. The plates were then cultured at 37° C./5% CO2 for 21-24 hours. Cell-free supernatants were harvested by centrifuging the 96-well plates at 2100 rpm, 23° C. for 10 minutes. Approximately 160 microliters of the supernatant were then stored in a NUNC 96-well plate, covered with the compression cap and stored at −80° C. until the cytokine analysis was done.
IFN-alpha cytokine levels (picograms/mL) were measured by ELISA (human IFN-alpha, pan specific, Mabtech, Cincinnati, OH). […]

[1] = ELISA, read-out: MEC to Induce Cytokine IFN-alpha
[2] = multiplex bead assay, read-out: MEC to Induce Cytokine IFN-gamma

Structure (SMILES) | minimal effective concentration [1] [µM] | MEC to Induce Cytokine TNF-alpha (multiplex bead assay) [µM] | minimal effective concentration [2] [µM] | activity toward cytokine production (statement in the description)
CCOC[C@@H](C(C)C)n1cnc2c(N)nc3ccccc3c21 [Example 2, 1-[(1R)-1-(ethoxymethyl)-2-methyl-propyl]imidazo[4,5-c]quinolin-4-amine] | 3.3 | 3.3 | > 30 | –
CCOC[C@@H](n1c(CC)nc2c(N)nc3ccccc3c21)C(C)(C)O [Example 8, (3R)-3-(4-amino-2-ethyl-imidazo[4,5-c]quinolin-1-yl)-4-ethoxy-2-methyl-butan-2-ol] | 10 | – | 3.3 | –
CCOC[C@H](n1cnc2c(N)nc3ccccc3c21)C(C)(C)C [Example 10, 1-[(1R)-1-(ethoxymethyl)-2,2-dimethyl-propyl]imidazo[4,5-c]quinolin-4-amine] | 3 | 3.0 | 3 | –
CCOC[C@H](C(C)C)n1c(C)nc2c(N)nc3ccccc3c21 [Example 3, 1-[(1S)-1-(ethoxymethyl)-2-methyl-propyl]-2-methyl-imidazo[4,5-c]quinolin-4-amine] | 0.37 | 0.37 | 1.1 | –
CCOC[C@H](C(C)C)n1cnc2c(N)nc3ccccc3c21 [Example 1, 1-[(1S)-1-(ethoxymethyl)-2-methyl-propyl]imidazo[4,5-c]quinolin-4-amine] | ≤ 0.04 | ≤0.04 | ≤ 0.04 | –
CCOC[C@@H](n1cnc2c(N)nc3ccccc3c21)C(O)(CC)CC [Example 12, (2R)-2-(4-aminoimidazo[4,5-c]quinolin-1-yl)-1-ethoxy-3-ethyl-pentan-3-ol] | 0.04 | – | 0.12 | –
CCOC[C@@H](n1c(C)nc2c(N)nc3ccccc3c21)C(C)(C)O [Example 7, (3R)-3-(4-amino-2-methyl-imidazo[4,5-c]quinolin-1-yl)-4-ethoxy-2-methyl-butan-2-ol] | 0.12 | – | 0.37 | –
CCOC[C@@H](C(C)C)n1c(C)nc2c(N)nc3ccccc3c21 [Example 4, 1-[(1R)-1-(ethoxymethyl)-2-methyl-propyl]-2-methyl-imidazo[4,5-c]quinolin-4-amine] | 10 | 10 | > 30 | –
CCOC[C@@H](n1cnc2c(N)nc3ccccc3c21)C(C)(C)O [Example 5, (3R)-3-(4-aminoimidazo[4,5-c]quinolin-1-yl)-4-ethoxy-2-methyl-butan-2-ol] | 0.12 | 0.04 | 0.12 | –
COC[C@@H](n1cnc2c(N)nc3ccccc3c21)C(C)(C)C [Example 11, 1-[(1S)-1-(methoxymethyl)-2,2-dimethyl-propyl]imidazo[4,5-c]quinolin-4-amine] | ≤ 0.4 | ≤0.4 | ≤ 0.4 | –
CCOC[C@@H](n1cnc2c(N)nc3ccccc3c21)C(C)(C)C [Example 9, 1-[(1S)-1-(ethoxymethyl)-2,2-dimethyl-propyl]imidazo[4,5-c]quinolin-4-amine] | 0.004 | 0.004 | 0.012 | –
CCO[C@@H](C)[C@@H](n1cnc2c(N)nc3ccccc3c21)C(C)(C)O [Example 13, (3R,4S)-3-(4-aminoimidazo[4,5-c]quinolin-1-yl)-4-ethoxy-2-methyl-pentan-2-ol] | 3.3 | 10 | 10 | –
CCOC[C@H](n1cnc2c(N)nc3ccccc3c21)C(C)(C)O [Example 6, (3S)-3-(4-aminoimidazo[4,5-c]quinolin-1-yl)-4-ethoxy-2-methyl-butan-2-ol] | > 100 | >100 | > 100 | inactive toward cytokine production
